These compounds were tested against T1, Angiotensin II-Rezeptor (Rattus norvegicus, UniProt P25095) (assay: Angiotensin II receptor binding: displacement of [125I]-angiotensin II in rat lung homogenate). Settings: rat lung (Rattenlunge) homogenate, 50 pM [125I]-Angiotensin II, 60 min at 37°C, IC50 from dose-response curve; read-out: IC₅₀.
T1 construct: Das Gewebe (Rattenlunge) wird in Tris-Puffer; from tissue; host or cells: rat lung homogenate (membrane pellet, 20,000 x g)
T1 sequence (P25095 1-359): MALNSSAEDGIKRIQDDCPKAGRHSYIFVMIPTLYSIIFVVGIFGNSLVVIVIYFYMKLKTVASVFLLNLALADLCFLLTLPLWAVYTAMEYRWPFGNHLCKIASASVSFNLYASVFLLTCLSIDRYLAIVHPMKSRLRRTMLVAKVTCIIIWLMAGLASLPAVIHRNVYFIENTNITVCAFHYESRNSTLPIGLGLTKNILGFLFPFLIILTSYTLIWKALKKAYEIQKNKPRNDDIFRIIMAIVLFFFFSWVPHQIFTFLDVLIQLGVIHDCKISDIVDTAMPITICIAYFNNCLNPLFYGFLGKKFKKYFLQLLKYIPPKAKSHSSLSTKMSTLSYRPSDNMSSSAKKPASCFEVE
Design: species or system Ratte
Protocol: Methodenbeschreibung Angiotensin II-Rezeptorbindung
Das Gewebe (Rattenlunge) wird in Tris-Puffer (50 mMol Tris, 150 mMol NaCl, 5 mMol EDTA, pH 7.40) homogenisiert und zweimal je 20 Min. bei 20.000 x g zentrifugiert. Das endgültige Pellet wird in Inkubations-Puffer (50 mMol Tris, 5 mMol MgCl₂, 0,2 % BSA, pH 7,40) 1:75, bezogen auf das Feuchtgewicht des Gewebes, resuspendiert. Je 0,1 ml Homogenat wird für 60 Min. bei 37°C mit 50 pM [125^I]-Angiotensin II (NEN, Dreieich, FRG) und steigenden Konzentrationen der Testsubstanz in einem Gesamtvolumen von 0,25 ml inkubiert. Die Inkubation wird durch rasche Filtration durch Glasfiber-Filtermatten beendet. Die Filter werden je 4 ml eiskaltem Puffer (25 mMol Tris, 2.5 mMol MgCl₂, 0,1 % BSA, pH 7,40) gewaschen. Die gebundene Radioaktivität wird in einem Gamma-Counter ermittelt. Aus der Dosis-Wirkungskurve wird der entsprechende IC₅₀-Wert ermittelt.

First: CCOc1nc2c(C)cc(-c3nc4ccccc4n3C)cc2n1Cc1ccc(-c2ccccc2-c2nnn[nH]2)cc1 [Substanz E, 4'-[(2-Ethoxy-4-methyl-6-(1-methyl-benzimidazol-2-yl)-benzimidazol-1-yl)-methyl]-2-(1H-tetrazol-5-yl)-biphenyl]
Second: CCc1nc2c(C)cc(-c3nc4cc(F)ccc4n3C)cc2n1Cc1ccc(-c2ccccc2C(=O)O)cc1 [Substanz A, 4'-[(2-Ethyl-4-methyl-6-(1-methyl-5-fluor-benzimidazol-2-yl)-benzimidazol-1-yl)-methyl]-biphenyl-2-carbonsäure]
The IC50 of the first is 2.2-fold lower: 3.3 nM for the first, 7.4 nM for the second. The first is the more potent here.

`Cc1cc(-c2cn3c(n2)CCCC3)cc2c1nc(C1CC1)n2Cc1ccc(-c2ccccc2C(=O)O)cc1` [Substanz D, 4'-[(2-Cyclopropyl-4-methyl-6-(5,6,7,8-tetrahydro-imidazo[1,2-a]pyridin-2-yl)-benzimidazol-1-yl)-methyl]-biphenyl-2-carbonsäure] and `Cc1cc(-c2cn3ccccc3n2)cc2c1nc(C1CC1)n2Cc1ccc(-c2ccccc2C(=O)O)cc1` [Substanz C, 4'-[(2-Cyclopropyl-4-methyl-6-(imidazo[1,2-a]pyridin-2-yl)-benzimidazol-1-yl)-methyl]-biphenyl-2-carbonsäure] are within 1.5-fold of each other in IC50: 1.3 nM for the first, 1.7 nM for the second.

`CCCc1nc2c(C)cc(N3CCCCS3(=O)=O)cc2n1Cc1ccc(-c2ccccc2C(=O)O)cc1` [Substanz B, 4'-[(2-n-Propyl-4-methyl-6-(butansultam-1-yl)-benzimidazol-1-yl)-methyl]-biphenyl-2-carbonsäure] showed an IC50 of 0.9 nM.
